Data taken from the supplement of paper PMC10331698.
± gives the standard deviation of the averaged measurements.

Experiments:
Assay in all cases: level (log10 ratio to DMSO vehicle control); higher = higher biomarker level / cell amount than vehicle control
Conditions in all cases: in DMSO
[1] = compound: NC(=O)C(F)(F)C(F)(F)F [Pentafluoropropionamide]
Procedure: (§1)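 BioMAP Diversity Plus panel of 12 human primary cell co-culture systems (3C, 4H, LPS, SAg, BT, BF4T, BE3C, CASM3C, HDF3CGF, KF3CT, MyoF, Mphg). Compounds were added 1 h before stimulation and left for 24 h (MyoF 48 h; BT 72 h for soluble read-outs or 6 d for IgG). Biomarkers were read by ELISA, cytotoxicity by SRB, PBMC viability and proliferation by Alamar Blue. Each well value was divided by the mean of 8 DMSO control wells on the same plate and log10 transformed; duplicate blinded samples were tested at 4 concentrations.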

[2] = compound: O=C(O)C(F)(F)C(F)(F)C(F)(F)C(F)(F)C(F)(F)C(F)(F)C(F)(F)C(F)(F)C(F)(F)F [Perfluorodecanoic acid]
Procedure: as §1

[3] = compound: C=C(C)C(=O)OCCC(F)(F)C(F)(F)C(F)(F)C(F)(F)C(F)(C(F)(F)F)C(F)(F)F [(Perfluoro-5-methylhexyl)ethyl 2-methylprop-2-enoate]
Procedure: as §1

[4] = compound: O=C(O)C(F)(F)C(F)(F)C(F)(F)OC(F)(C(F)(F)F)C(F)(F)F [Perfluoro-4-isopropoxybutanoic acid]
Procedure: as §1

[5] = compound: O=C(O)C(F)(F)C(F)(F)OC(F)(F)F [Perfluoro-3-methoxypropanoic acid]
Procedure: as §1

[6] = compound: NC(=O)C(F)(F)C(F)(F)C(F)(F)F [Heptafluorobutyramide]
Procedure: as §1

Test System	level (log10) ([1]; 6700 nM)	level (log10) ([1]; 20000 nM)	level (log10) ([1]; 60000 nM)	level (log10) ([2]; 6700 nM)	level (log10) ([2]; 20000 nM)	level (log10) ([3]; 6700 nM)	level (log10) ([3]; 20000 nM)	level (log10) ([4]; 6700 nM)	level (log10) ([4]; 20000 nM)	level (log10) ([4]; 60000 nM)	level (log10) ([5]; 6700 nM)	level (log10) ([5]; 20000 nM)	level (log10) ([5]; 60000 nM)	level (log10) ([6]; 6700 nM)	level (log10) ([6]; 20000 nM)	level (log10) ([6]; 60000 nM)
CASM3C:CCL2/MCP-1	-0.003 ± 0.021	-0.01 ± 0.0014	0.0075 ± 0.013	0.006 ± 0.02	0 ± 0.0042	0.002 ± 0.023	0.0105 ± 0.005	-0.0255 ± 0.012	-0.0305 ± 0.005	0.027 ± 0.034	-0.0175 ± 0.032	-0.0215 ± 0.03	0.017 ± 0.0099	-0.004 ± 0.0057	-0.0145 ± 0.0021	0.015 ± 0.037
3C:CD54/ICAM-1	0.0035 ± 0.0035	-0.0105 ± 0.016	0.008 ± 0.014	0.0105 ± 0.0021	0.015 ± 0.0071	-0.009 ± 0.0014	-0.01 ± 0.0071	0.0075 ± 0.016	-0.0085 ± 0.022	0.0285 ± 0.0078	-0.001 ± 0.021	-0.034 ± 0.0028	-0.0055 ± 0.029	-0.023 ± 0.02	-0.008 ± 0.0014	-0.019 ± 0.016
HDF3CGF:Proliferation 72hr	0.0225 ± 0.018	0.045 ± 0.042	0.076 ± 0.013	0.115 ± 0.025	-0.934 ± 0.037	-0.015 ± 0.0028	-0.014	0.0305 ± 0.037	0.04 ± 0.055	0.051 ± 0.011	-0.028 ± 0.0085	0.0125 ± 0.016	0.0225 ± 0.023	0.0015 ± 0.088	0.016 ± 0.041	-0.0205 ± 0.053
HDF3CGF:EGFR	0.006 ± 0.0085	-0.005 ± 0.011	0.007 ± 0.021	-0.075 ± 0.054	-0.195 ± 0.026	-0.0695 ± 0.0078	-0.0415 ± 0.0064	-0.001 ± 0.034	-0.0035 ± 0.022	-0.012 ± 0.024	-0.002 ± 0.0085	0.003 ± 0.0085	0.0165 ± 0.029	0.0095 ± 0.059	0.0005 ± 0.046	-0.0155 ± 0.032
HDF3CGF:TIMP-1	-0.0265 ± 0.0092	-0.01 ± 0.018	0.0045 ± 0.032	0.016 ± 0.037	-0.0995 ± 0.03	-0.035 ± 0.0071	-0.0345 ± 0.0078	-0.023 ± 0.048	-0.0155 ± 0.043	0.018 ± 0.11	-0.0285 ± 0.026	0.0185 ± 0.005	0.036 ± 0.071	0.002 ± 0.017	-0.017 ± 0.051	-0.001 ± 0.0042
HDF3CGF:CCL2/MCP-1	-0.024 ± 0.034	-0.0245 ± 0.012	-0.015 ± 0.031	-0.0595 ± 0.0078	0.042 ± 0.034	-0.0335 ± 0.0092	-0.024 ± 0.023	0.013 ± 0.0028	0.0335 ± 0.019	0.0425 ± 0.0021	-0.002 ± 0.0071	-0.0055 ± 0.00071	0.0085 ± 0.022	0.0005 ± 0.04	0.0055 ± 0.036	0.0185 ± 0.066
CASM3C:CD141/Thrombomodulin	-0.023 ± 0.034	-0.0315 ± 0.011	-0.0555 ± 0.015	-0.015 ± 0.031	-0.0125 ± 0.029	-0.0185 ± 0.069	0.0165 ± 0.098	0 ± 0.018	-0.005 ± 0.02	0.0135 ± 0.029	-0.003 ± 0.0028	-0.014 ± 0.0099	0.021 ± 0.04	0.017 ± 0.033	0.0065 ± 0.033	-0.016 ± 0.041
CASM3C:CXCL8/IL-8	-0.007 ± 0.014	-0.017 ± 0.0071	-0.0005 ± 0.012	-0.0035 ± 0.0064	-0.006 ± 0.0028	0.005 ± 0.037	0.019 ± 0.028	0.0115 ± 0.019	0.0295 ± 0.016	0.076 ± 0.017	0.0045 ± 0.03	0.006 ± 0.03	0.033 ± 0.0028	-0.005 ± 0.0057	-0.007 ± 0.0099	0.0075 ± 0.015
CASM3C:IL-6	-0.021 ± 0.017	-0.025 ± 0.0028	-0.003 ± 0.041	-0.035 ± 0.037	-0.0375 ± 0.039	-0.035 ± 0.0042	0.0345 ± 0.028	-0.0055 ± 0.019	-0.002 ± 0.025	0.0285 ± 0.084	-0.001 ± 0.038	0 ± 0.044	0.0245 ± 0.0078	-0.0275 ± 0.033	-0.0105 ± 0.012	0.013 ± 0.042
3C:CD141/Thrombomodulin	-0.0355 ± 0.032	-0.0165 ± 0.005	-0.027 ± 0.018	-0.019 ± 0.025	-0.0445 ± 0.012	0.041 ± 0.033	0.005 ± 0.033	-0.019 ± 0.0014	-0.0365 ± 0.019	-0.015 ± 0.0028	0.0005 ± 0.087	-0.0245 ± 0.036	-0.0215 ± 0.023	-0.004 ± 0.083	-0.022 ± 0.099	-0.047 ± 0.11
BE3C:MMP-1	0.0275 ± 0.015	0.0185 ± 0.028	0.0665 ± 0.037	0.211 ± 0.041	-0.4875 ± 0.0035	0.026 ± 0.0042	0.014 ± 0.0057	-0.002 ± 0.017	0.004 ± 0.025	0.0605 ± 0.054	-0.0025 ± 0.018	0.002 ± 0.013	0.0155 ± 0.00071	0.007 ± 0.0057	0.0045 ± 0.018	0.0195 ± 0.073
MyoF:bFGF	-0.002 ± 0.0042	0.0105 ± 0.012	-0.0005 ± 0.029	0.001 ± 0.0042	0.0055 ± 0.0035	-0.0015 ± 0.005	0.002 ± 0.0014	-0.014 ± 0.016	-0.0225 ± 0.026	-0.004 ± 0.027	0.002 ± 0.018	-0.004 ± 0.037	0.0045 ± 0.025	-0.0155 ± 0.021	0.004 ± 0.016	-0.001 ± 0.013
BE3C:tPA	-0.0055 ± 0.012	-0.001 ± 0.018	0.003 ± 0.02	0.0215 ± 0.026	-0.546 ± 0.0085	-0.0245 ± 0.00071	-0.0325 ± 0.021	-0.0285 ± 0.018	-0.0385 ± 0.0035	-0.0025 ± 0.057	-0.007 ± 0.04	-0.0075 ± 0.019	0.004 ± 0.0071	-0.027 ± 0.017	-0.0055 ± 0.0021	-0.0115 ± 0.028
MyoF:SRB	0.0045 ± 0.0021	-0.007 ± 0.0057	-0.0015 ± 0.0035	-0.033 ± 0.0014	-0.08 ± 0.0099	0.001 ± 0.014	-0.0035 ± 0.0078	-0.0055 ± 0.0021	0.0015 ± 0.00071	-0.0035 ± 0.0064	-0.005 ± 0.0042	-0.004 ± 0.0028	0 ± 0.0014	-0.011 ± 0.017	-0.0035 ± 0.0078	-0.0005 ± 0.005
HDF3CGF:CXCL9/MIG	-0.016 ± 0.0042	0.0095 ± 0.00071	0.0015 ± 0.0078	-0.069 ± 0.048	-0.27 ± 0.061	0.0135 ± 0.00071	0.0095 ± 0.011	-0.0125 ± 0.023	0.0185 ± 0.005	0.009 ± 0.024	-0.016 ± 0.016	0.0155 ± 0.019	0.019 ± 0.0014	0.0055 ± 0.026	0.0035 ± 0.019	-0.0225 ± 0.025
BE3C:SRB	-0.0015 ± 0.0021	-0.001	-0.0015 ± 0.005	-0.0245 ± 0.005	-0.664 ± 0.021	0.009 ± 0.0099	0.0065 ± 0.016	-0.0035 ± 0.00071	-0.0095 ± 0.00071	0.001 ± 0.0085	-0.001	-0.004 ± 0.0014	0.004 ± 0.018	-0.0025 ± 0.0035	0.0005 ± 0.00071	-0.002 ± 0.0042
BE3C:uPA	-0.0305 ± 0.028	-0.0265 ± 0.015	-0.011 ± 0.014	-0.0025 ± 0.011	-0.38 ± 0.0099	-0.001 ± 0.016	-0.0005 ± 0.016	-0.001 ± 0.0042	0.0025 ± 0.012	0.0185 ± 0.0064	-0.004 ± 0.0014	-0.0025 ± 0.0021	0.0005 ± 0.0092	-0.011 ± 0.02	-0.017 ± 0.024	-0.0145 ± 0.019
HDF3CGF:CD54/ICAM-1	-0.01 ± 0.052	0.017 ± 0.024	-0.0025 ± 0.0064	-0.0485 ± 0.0092	-0.071	0.0005 ± 0.016	-0.0045 ± 0.026	-0.009 ± 0.0071	-0.01 ± 0.0028	-0.031 ± 0.017	-0.017 ± 0.0028	-0.0025 ± 0.005	-0.0055 ± 0.00071	-0.0045 ± 0.021	0.0035 ± 0.0092	-0.001 ± 0.0099
